What was measured:
[1] = tested on: HepG2; experiment: Antiviral activity against Hepatitis B virus in 2.2.15 cell line; format: functional, cell-based; details: Homo sapiens
[2] = tested on: HepG2; experiment: Concentration required to inhibit 50% of 2.2.15 cell line; format: functional, cell-based; details: Homo sapiens
[3] = tested on: CCRF-CEM; experiment: Antiviral activity against HIV in CEM cell line; format: functional, cell-based; details: Homo sapiens
[4] = tested on: CCRF-CEM; experiment: Concentration required to inhibit 50% of CEM cell lines; format: functional, cell-based; details: Homo sapiens
[5] = Concentration required to inhibit 50% of human peripheral blood mononuclear cells; format: functional
[6] = Antiviral activity against HIV in human peripheral blood mononuclear cells (PBMC); format: functional

| SMILES | EC50 [1] [µM] | IC50 [2] [µM] | EC50 [3] [µM] | IC50 [4] [µM] | IC50 [5] [µM] | EC50 [6] [µM] |
| --- | --- | --- | --- | --- | --- | --- |
| Nc1nc(O)c2ncn([C@@H]3C=C[C@H](CO)O3)c2n1 | > 10 | 50 | 18.1 | > 10 | > 100 | 14.1 |
| OC[C@H]1C=C[C@@H](n2cnc3c(O)ncnc32)O1 | > 10 | 50 |  |  | 60 | 5.5 |
| Nc1ncnc2c1ncn2[C@H]1CC[C@@H](CO)O1 (single isomer, unassigned) | 6 | > 200 |  |  | > 100 | 8.2 |
| Nc1ncnc2c1ncn2[C@H]1C=C[C@@H](CO)O1 (single isomer, unassigned) | 1.2 | 70 | 0.54 | 37 | 59 | 0.38 |
| Nc1nc(O)c2ncn([C@H]3CC[C@@H](CO)O3)c2n1 (single isomer, unassigned) | > 10 | 200 | > 100 | > 100 | > 100 | > 100 |
| O=c1[nH]cnc2c1ncn2[C@H]1CC[C@@H](CO)O1 (single isomer, unassigned) [DIDANOSINE] | > 10 | > 200 |  |  | > 100 | > 100 |

Source: ChEMBL document CHEMBL1129120, “Anti-human immunodeficiency and anti-hepatitis B virus activities of -l-2,3-dideoxy purine nucleosides” (Bioorg Med Chem Lett, 1996)
